According to patent EP4559908A1, “HETEROARYL DERIVATIVE COMPOUND AND USE THEREOF” (S2CBio Inc., priority 2022, dated 2024):

Molecular target: T1, human ANO6 (variant 5) (Homo sapiens, UniProt Q4KMQ2)
T1 construct: expressed in transfected cells; host or cells: Fischer rat thyroid (FRT) cells
T1 sequence (Q4KMQ2 1-931 isoform Q4KMQ2-2): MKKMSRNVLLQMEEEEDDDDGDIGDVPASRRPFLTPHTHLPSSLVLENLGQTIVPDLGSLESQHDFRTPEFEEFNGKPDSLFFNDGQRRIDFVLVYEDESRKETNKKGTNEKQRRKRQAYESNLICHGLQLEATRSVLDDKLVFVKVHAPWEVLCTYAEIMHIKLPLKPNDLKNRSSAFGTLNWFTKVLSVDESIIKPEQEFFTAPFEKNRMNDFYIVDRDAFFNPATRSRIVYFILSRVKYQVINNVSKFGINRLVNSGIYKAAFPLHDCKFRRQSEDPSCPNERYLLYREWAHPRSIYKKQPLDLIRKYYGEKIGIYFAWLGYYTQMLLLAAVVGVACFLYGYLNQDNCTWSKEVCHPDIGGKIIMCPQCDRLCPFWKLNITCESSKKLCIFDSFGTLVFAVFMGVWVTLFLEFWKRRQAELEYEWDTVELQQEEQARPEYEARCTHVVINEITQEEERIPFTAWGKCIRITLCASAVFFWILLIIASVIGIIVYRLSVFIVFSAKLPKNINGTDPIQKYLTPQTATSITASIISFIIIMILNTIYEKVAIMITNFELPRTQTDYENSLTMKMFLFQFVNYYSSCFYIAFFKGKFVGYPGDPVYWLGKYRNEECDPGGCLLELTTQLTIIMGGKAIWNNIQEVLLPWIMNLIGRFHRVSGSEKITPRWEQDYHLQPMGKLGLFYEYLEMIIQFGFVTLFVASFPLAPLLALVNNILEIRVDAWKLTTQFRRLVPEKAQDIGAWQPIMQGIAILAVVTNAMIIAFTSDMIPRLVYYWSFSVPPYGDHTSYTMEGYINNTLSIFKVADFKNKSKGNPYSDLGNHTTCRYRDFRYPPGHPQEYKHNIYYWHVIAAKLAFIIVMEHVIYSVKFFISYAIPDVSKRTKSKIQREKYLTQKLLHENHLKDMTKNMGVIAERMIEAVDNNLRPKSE
Experiment: Lact C2 assay (measuring phosphatidylserine externalization scramblase function)
Assay type: cell-based
Conditions: FRT, FRT cells expressing human ANO6 (variant 5), ionomycin 10 µM, Lact-C2-GFP fluorescence, average of three tests; for inhibition at 0.05 µM: compound 50 nM, read-out: % Inhibition 50 nM; for inhibition at 0.1 µM: compound 100 nM; for inhibition at 1 µM: compound 1 µM, read-out: % Inhibition 1 µM
Procedure: Ionomycin (Alomonelab, cat. # I-700), DAPI (Sigma- Aldrich, cat. # D8417), paraformaldehyde (Biosesang, cat. #P2031), Lionheart FX automated fluorescence microscope (BioTek), Gen5™ software program (BioTek), and Image J analysis software program.
After the incubation, the cells were treated with compounds dissolved in DMSO to 1% v/v in each well at each concentration (50 nM, 100 nM, and 1 µM) and reacted for 10 minutes. Thereafter, each well was treated with ionomycin to a final concentration of 10 µM, allowed to react for 10 minutes, and then washed with 200 µL PBS. After washing, each well was treated with 50 µL of Lactadherin-C2 (Lact-C2)-GFP mixed in DMEM medium to a final concentration of 500 nM to stain phosphatidylserine, and cultured at 37°C for 10 minutes. After completion of the reaction, the cells were washed with 200 µL PBS, and fixed with 4% paraformaldehyde for 5 minutes at room temperature. For morphological analysis, DAPI solution was added, and the cells were incubated for 15 minutes, followed by washing with PBS. The fluorescence intensity of Lact-C2-GFP bound to phosphatidylserine on the cell surface was measured using an automated fluorescence microscope. For quantitative analysis of the fluorescence intensity of Lact-C2-GFP, BioTek Gen5™ software and Image J analysis software programs were used.
Phosphatidylserine externalization inhibitory activity (%) by the compound was calculated through the following analysis method. Specifically, the background fluorescence value was subtracted from the measured Lact-C2-GFP fluorescence value, and the fluorescence value of the ionomycin non-treatment group and the ionomycin-treatment group in the same row where each test group was located in a 96-well microplate were calculated. In order to calculate the inhibitory activity (%) by the compound, the relative inhibitory activity was calculated by setting the compound and ionomycin non-treatment group to 100% inhibitory activity and the ionomycin alone treatment group to 0% inhibitory activity.

Row | inhibition at 0.05 µM [%] | inhibition at 0.1 µM [%] | inhibition at 1 µM [%] | Compound
1 | 30 to 60 | > 60 | > 60 | FC(F)(F)c1ccc2nc(-c3cccc(Nc4ccc(-c5ccccc5)nn4)c3)[nH]c2c1 [Example 1, 6-phenyl-N-(3-(6-(trifluoromethyl)-1H-benzo[d]imidazol-2-yl)phenyl)pyridazin-3-amine]
2 | – | > 60 | > 60 | c1ccc(-c2ccc(Nc3cccc(-c4nc5ccccc5[nH]4)c3)nn2)cc1 [Example 2, N-(3-(1H-benzo[d]imidazol-2-yl)phenyl)-6-phenylpyridazin-3-amine]
3 | > 60 | > 60 | > 60 | CC(C)(C)c1ccc2nc(-c3cccc(Nc4ccc(-c5ccccc5)nn4)c3)[nH]c2c1 [Example 3, N-[3-(6-tert-butyl-1H-benzo[d]imidazol-2-yl)phenyl]-6-phenylpyridazin-3-amine]
4 | 30 to 60 | > 60 | > 60 | Fc1cc2nc(-c3cccc(Nc4ccc(-c5ccccc5)nn4)c3)[nH]c2cc1Br [Example 4, N-[3-(6-bromo-5-fluoro-1H-benzo[d]imidazol-2-yl)phenyl]-6-phenylpyridazin-3-amine]
5 | – | > 60 | > 60 | FC(F)(F)Oc1ccc2nc(-c3cccc(Nc4ccc(-c5ccccc5)nn4)c3)[nH]c2c1 [Example 6, 6-phenyl-N-(3-(6-(trifluoromethoxy)-1H-benzo[d]imidazol-2-yl)phenyl)pyridazin-3-amine]
6 | > 60 | > 60 | > 60 | Clc1cc2nc(-c3cccc(Nc4ccc(-c5ccccc5)nn4)c3)[nH]c2cc1Cl [Example 7, N-(3-(5,6-dichloro-1H-benzo[d]imidazol-2-yl)phenyl)-6-phenylpyridazin-3-amine]
7 | > 60 | > 60 | > 60 | FC(F)(F)c1cc2nc(-c3cccc(Nc4ccc(-c5ccccc5)nn4)c3)[nH]c2cc1Cl [Example 8, N-{3-[6-chloro-5-(trifluoromethyl)-1H-benzo[d]imidazol-2-yl]phenyl}-6-phenylpyridazin-3-amine]
8 | > 60 | > 60 | > 60 | FC(F)(F)c1cc2nc(-c3cccc(Nc4ccc(-c5ccccc5)nn4)c3)[nH]c2cc1Br [Example 9, N-{3-[6-bromo-5-(trifluoromethyl)-1H-benzo[d]imidazol-2-yl]phenyl}-6-phenylpyridazin-3-amine]
9 | > 60 | > 60 | > 60 | FC(F)(F)Oc1cc2nc(-c3cccc(Nc4ccc(-c5ccccc5)nn4)c3)[nH]c2cc1Cl [Example 10, N-{3-[6-chloro-5-(trifluoromethoxy)-1H-benzo[d]imidazol-2-yl]phenyl}-6-phenylpyridazin-3-amine]
10 | – | 30 to 60 | > 60 | Fc1cc(Br)c2[nH]c(-c3cccc(Nc4ccc(-c5ccccc5)nn4)c3)nc2c1 [Example 11, N-(3-(7-bromo-5-fluoro-1H-benzo[d]imidazol-2-yl)phenyl)-6-phenylpyridazin-3-amine]
11 | > 60 | > 60 | > 60 | Clc1ccc2nc(-c3cccc(Nc4ccc(-c5ccccc5)nn4)c3)[nH]c2c1 [Example 12, N-[3-(6-chloro-1H-benzo[d]imidazol-2-yl)phenyl]-6-phenylpyridazin-3-amine]
12 | > 60 | > 60 | > 60 | Clc1cc2nc(-c3cccc(Nc4ccc(-c5ccccc5)cn4)c3)[nH]c2cc1Cl [Example 13, N-[3-(5,6-dichloro-1H-benzo[d]imidazol-2-yl)phenyl]-5-phenylpyridin-2-amine]
13 | > 60 | > 60 | > 60 | FC(F)(F)c1ccc2nc(-c3cccc(Nc4ncc(-c5ccccc5)cn4)c3)[nH]c2c1 [Example 14, 5-phenyl-N-(3-(6-(trifluoromethyl)-1H-benzo[d]imidazol-2-yl)phenyl)pyrimidin-2-amine]
14 | > 60 | > 60 | > 60 | FC(F)(F)c1ccc2nc(-c3cccc(Nc4ccc(-c5ccccc5)cn4)c3)[nH]c2c1 [Example 15, 5-Phenyl-N-{3-[6-(trifluoromethyl)-1H-benzo[d]imidazol-2-yl]phenyl}pyridin-2-amine]
15 | > 60 | > 60 | > 60 | Fc1cccc(-c2cnc(Nc3cccc(-c4nc5ccc(C(F)(F)F)cc5[nH]4)c3)nc2)c1 [Example 17, 5-(3-Fluorophenyl)-N-{3-[6-(trifluoromethyl)-1H-benzo[d]imidazol-2-yl]phenyl}pyrimidin-2-amine]
16 | > 60 | > 60 | > 60 | Fc1cccc(-c2ccc(Nc3cccc(-c4nc5ccc(C(F)(F)F)cc5[nH]4)c3)nc2)c1 [Example 18, 5-(3-fluorophenyl)-N-(3-(6-(trifluoromethyl)-1H-benzo[d]imidazol-2-yl)phenyl)pyridin-2-amine]
17 | 30 to 60 | > 60 | > 60 | c1ccc(-c2ccc(Nc3cccc(-c4nc5ccccc5[nH]4)c3)cc2)cc1 [Example 19, N-[3-(1H-benzo[d]imidazol-2-yl)phenyl]-[1,1'-biphenyl]-4-amine]
18 | > 60 | > 60 | > 60 | c1ccc(-c2ccc(Nc3cccc(-c4nc5ccccc5[nH]4)c3)cc2)nc1 [Example 20, 3-(1H-benzo[d]imidazol-2-yl)-N-(4-(pyridin-2-yl)phenyl)aniline]
19 | > 60 | > 60 | > 60 | c1cc(Nc2ccc(-c3cccnn3)cc2)cc(-c2nc3ccccc3[nH]2)c1 [Example 21, 3-(1H-benzo[d]imidazol-2-yl)-N-(4-(pyridazin-3-yl)phenyl)aniline]
20 | > 60 | > 60 | > 60 | c1cc(Nc2ccc(-c3ccncn3)cc2)cc(-c2nc3ccccc3[nH]2)c1 [Example 22, N-[3-(1H-benzo[d]imidazol-2-yl)phenyl]-4-(pyrimidin-4-yl)aniline]
21 | > 60 | > 60 | > 60 | FC(F)(F)c1ccc2nc(-c3cccc(Nc4ccc(-c5cccnn5)cc4)c3)[nH]c2c1 [Example 23, N-(4-(pyridazin-3-yl)phenyl)-3-(6-(trifluoromethyl)-1H-benzo[d]imidazol-2-yl)aniline]
22 | > 60 | > 60 | > 60 | FC(F)(F)c1ccc2nc(-c3cccc(Nc4ccc(-c5ccncn5)cc4)c3)[nH]c2c1 [Example 24, N-(4-(pyrimidin-4-yl)phenyl)-3-(6-(trifluoromethyl)-1H-benzo[d]imidazol-2-yl)aniline]
23 | > 60 | > 60 | > 60 | Fc1ccc2nc(-c3cccc(Nc4ccc(-c5cccnn5)cc4)c3)[nH]c2c1 [Example 25, 3-(6-fluoro-1H-benzo[d]imidazol-2-yl)-N-(4-(pyridazin-3-yl)phenyl)aniline]
